From PubChem BioAssay (NCI)
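Briefly, cells in 96-well plates were exposed to five compound concentrations for 48 h, and endpoints were estimated by linear interpolation. At the GI50, growth is halved. The concentration for full growth arrest is given as TGI.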

Experiments:
Assay in all cases: NCI-60 cell line screen, 48 h
K-562 leukemia = test system: K-562 leukemia
OVCAR-4 ovarian = test system: OVCAR-4 ovarian
KM20L2 colon = test system: KM20L2 colon
U251 CNS = test system: U251 CNS
A549 NSCLC = test system: A549 NSCLC
IGROV1 ovarian = test system: IGROV1 ovarian
LXFL 529 NSCLC = test system: LXFL 529 NSCLC
SW-620 colon = test system: SW-620 colon
786-0 renal = test system: 786-0 renal
NCI-H522 lung = test system: NCI-H522 lung
NCI-H23 lung = test system: NCI-H23 lung
DLD-1 colon = test system: DLD-1 colon
SF-295 CNS = test system: SF-295 CNS
HCC-2998 colon = test system: HCC-2998 colon
NCI-H226 lung = test system: NCI-H226 lung
SK-MEL-5 melanoma = test system: SK-MEL-5 melanoma
NCI-H460 lung = test system: NCI-H460 lung
HL-60(TB) leukemia = test system: HL-60(TB) leukemia
OVCAR-8 ovarian = test system: OVCAR-8 ovarian
UACC-62 melanoma = test system: UACC-62 melanoma
SK-MEL-28 melanoma = test system: SK-MEL-28 melanoma
XF 498 CNS = test system: XF 498 CNS
COLO 205 colon = test system: COLO 205 colon
MOLT-4 leukemia = test system: MOLT-4 leukemia
SN12C renal = test system: SN12C renal
SNB-78 CNS = test system: SNB-78 CNS
SNB-75 CNS = test system: SNB-75 CNS
MALME-3M melanoma = test system: MALME-3M melanoma
LOX IMVI melanoma = test system: LOX IMVI melanoma
HOP-18 NSCLC = test system: HOP-18 NSCLC
SK-MEL-2 melanoma = test system: SK-MEL-2 melanoma
UO-31 renal = test system: UO-31 renal
HCT-116 colon = test system: HCT-116 colon
M14 melanoma = test system: M14 melanoma
RPMI-8226 leukemia = test system: RPMI-8226 leukemia
EKVX NSCLC = test system: EKVX NSCLC
SF-539 CNS = test system: SF-539 CNS
RXF 393 renal = test system: RXF 393 renal
KM12 colon = test system: KM12 colon
CCRF-CEM leukemia = test system: CCRF-CEM leukemia
UACC-257 melanoma = test system: UACC-257 melanoma
OVCAR-3 ovarian = test system: OVCAR-3 ovarian
SR leukemia = test system: SR leukemia
HOP-62 NSCLC = test system: HOP-62 NSCLC
OVCAR-5 ovarian = test system: OVCAR-5 ovarian
M19-MEL melanoma = test system: M19-MEL melanoma
SF-268 CNS = test system: SF-268 CNS
HT29 colon = test system: HT29 colon
HCT-15 colon = test system: HCT-15 colon
SNB-19 CNS = test system: SNB-19 CNS
CAKI-1 renal = test system: CAKI-1 renal
ACHN renal = test system: ACHN renal
TK-10 renal = test system: TK-10 renal
A498 renal = test system: A498 renal
HOP-92 NSCLC = test system: HOP-92 NSCLC
SK-OV-3 ovarian = test system: SK-OV-3 ovarian
DMS 273 small cell lung = test system: DMS 273 small cell lung

In the case of `COc1ccc(-c2onc(-c3ccc([N+](=O)[O-])cc3)c2C2=NCCCN2)cc1`, the TGI (K-562 leukemia) is reported as > 100 µM, the TGI (OVCAR-4 ovarian) is reported as > 100 µM and the TGI (KM20L2 colon) is reported as > 100 µM. For the same molecule, the TGI (U251 CNS) was > 100 µM, the TGI (A549 NSCLC) was > 100 µM and the TGI (IGROV1 ovarian) was > 100 µM. For the same molecule, the TGI (LXFL 529 NSCLC) was > 100 µM, the TGI (SW-620 colon) was > 100 µM and the TGI (786-0 renal) was > 100 µM. For the same molecule, the TGI (NCI-H522 lung) was > 100 µM, the TGI (NCI-H23 lung) was > 100 µM and the TGI (DLD-1 colon) was > 100 µM. For the same molecule, the TGI (SF-295 CNS) was > 100 µM, the TGI (HCC-2998 colon) was > 100 µM and the TGI (NCI-H226 lung) was > 100 µM. For the same molecule, the TGI (SK-MEL-5 melanoma) was > 100 µM, the TGI (NCI-H460 lung) was > 100 µM and the TGI (HL-60(TB) leukemia) was > 100 µM. The TGI (OVCAR-8 ovarian) was > 100 µM, the TGI (UACC-62 melanoma) was > 100 µM and the TGI (SK-MEL-28 melanoma) was > 100 µM. For the same molecule, the TGI (XF 498 CNS) was > 100 µM, the TGI (COLO 205 colon) was > 100 µM and the TGI (MOLT-4 leukemia) was > 100 µM. The TGI (SN12C renal) was > 100 µM, the TGI (SNB-78 CNS) was > 100 µM and the TGI (SNB-75 CNS) was > 100 µM. The TGI (MALME-3M melanoma) was > 100 µM, the TGI (LOX IMVI melanoma) was > 100 µM and the TGI (HOP-18 NSCLC) was > 100 µM. For the same molecule, the TGI (SK-MEL-2 melanoma) was > 100 µM, the TGI (UO-31 renal) was > 100 µM and the TGI (HCT-116 colon) was > 100 µM. The TGI (M14 melanoma) was > 100 µM, the TGI (RPMI-8226 leukemia) was > 100 µM and the TGI (EKVX NSCLC) was > 100 µM. The TGI (SF-539 CNS) was > 100 µM, the TGI (RXF 393 renal) was > 100 µM and the TGI (KM12 colon) was > 100 µM. The TGI (CCRF-CEM leukemia) was > 100 µM, the TGI (UACC-257 melanoma) was > 100 µM and the TGI (OVCAR-3 ovarian) was 85.5 µM. For the same molecule, the TGI (SR leukemia) was > 100 µM, the TGI (HOP-62 NSCLC) was > 100 µM and the TGI (OVCAR-5 ovarian) was > 100 µM. For the same molecule, the TGI (M19-MEL melanoma) was > 100 µM, the TGI (SF-268 CNS) was > 100 µM and the TGI (HT29 colon) was > 100 µM. The TGI (HCT-15 colon) was > 100 µM, the TGI (SNB-19 CNS) was > 100 µM and the TGI (CAKI-1 renal) was > 100 µM. The TGI (ACHN renal) was > 100 µM.
With `O=C([CH-]C(=O)C(F)(F)F)c1ccccc1.O=C([CH-]C(=O)C(F)(F)F)c1ccccc1.[O]=[U+2]=[O]` the GI50 (K-562 leukemia) was 13.1 µM, the TGI (K-562 leukemia) was > 100 µM and the GI50 (OVCAR-4 ovarian) was 10.4 µM. For the same molecule, the TGI (OVCAR-4 ovarian) was > 100 µM, the GI50 (KM20L2 colon) was 19.9 µM and the TGI (KM20L2 colon) was > 100 µM. For the same molecule, the GI50 (U251 CNS) was 5.61 µM, the TGI (U251 CNS) was > 100 µM and the GI50 (A549 NSCLC) was 27.4 µM. The TGI (A549 NSCLC) was > 100 µM, the GI50 (IGROV1 ovarian) was 16.5 µM and the TGI (IGROV1 ovarian) was > 100 µM. For the same molecule, the GI50 (LXFL 529 NSCLC) was 7.33 µM, the TGI (LXFL 529 NSCLC) was > 100 µM and the GI50 (SW-620 colon) was 27.9 µM. The TGI (SW-620 colon) was > 100 µM, the GI50 (786-0 renal) was 21.7 µM and the TGI (786-0 renal) was 89.4 µM. For the same molecule, the GI50 (TK-10 renal) was 20.4 µM, the TGI (TK-10 renal) was 64.1 µM and the GI50 (NCI-H522 lung) was 4.11 µM. The TGI (NCI-H522 lung) was > 100 µM, the GI50 (NCI-H23 lung) was 4.71 µM and the TGI (NCI-H23 lung) was 67.7 µM. For the same molecule, the GI50 (DLD-1 colon) was 7.75 µM, the TGI (DLD-1 colon) was > 100 µM and the GI50 (SF-295 CNS) was 20.8 µM. The TGI (SF-295 CNS) was 86.5 µM, the GI50 (HCC-2998 colon) was 14.4 µM and the TGI (HCC-2998 colon) was 61.7 µM. For the same molecule, the GI50 (SK-MEL-5 melanoma) was 17.8 µM, the TGI (SK-MEL-5 melanoma) was > 100 µM and the GI50 (NCI-H460 lung) was 12.6 µM. The TGI (NCI-H460 lung) was 90.6 µM, the GI50 (HL-60(TB) leukemia) was 15.8 µM and the TGI (HL-60(TB) leukemia) was 78.4 µM. It also gave a GI50 (OVCAR-8 ovarian) of 14.1 µM, a TGI (OVCAR-8 ovarian) of 93.6 µM and a GI50 (UACC-62 melanoma) of 12.2 µM. For the same molecule, the TGI (UACC-62 melanoma) was 87.9 µM, the GI50 (SK-MEL-28 melanoma) was 9.2 µM and the TGI (SK-MEL-28 melanoma) was 79.5 µM. It also gave a GI50 (A498 renal) of 24.6 µM, a TGI (A498 renal) of 74.4 µM and a GI50 (XF 498 CNS) of 23.8 µM. The TGI (XF 498 CNS) was 69.9 µM, the GI50 (HOP-92 NSCLC) was 30.9 µM and the TGI (HOP-92 NSCLC) was 95.6 µM. For the same molecule, the GI50 (COLO 205 colon) was 34.5 µM, the TGI (COLO 205 colon) was > 100 µM and the GI50 (MOLT-4 leukemia) was 19.4 µM. For the same molecule, the TGI (MOLT-4 leukemia) was > 100 µM, the GI50 (SN12C renal) was 9.1 µM and the TGI (SN12C renal) was > 100 µM. For the same molecule, the GI50 (SNB-75 CNS) was 28.8 µM, the TGI (SNB-75 CNS) was 85.8 µM and the GI50 (MALME-3M melanoma) was 18.6 µM. The TGI (MALME-3M melanoma) was 47.7 µM, the GI50 (LOX IMVI melanoma) was 13 µM and the TGI (LOX IMVI melanoma) was > 100 µM. For the same molecule, the GI50 (SK-MEL-2 melanoma) was 28 µM, the TGI (SK-MEL-2 melanoma) was > 100 µM and the GI50 (UO-31 renal) was 5.4 µM. The TGI (UO-31 renal) was > 100 µM, the GI50 (M14 melanoma) was 19.1 µM and the TGI (M14 melanoma) was 88.9 µM. The GI50 (RPMI-8226 leukemia) was 8.51 µM, the TGI (RPMI-8226 leukemia) was > 100 µM and the GI50 (EKVX NSCLC) was 22.3 µM. The TGI (EKVX NSCLC) was 72.9 µM, the GI50 (SK-OV-3 ovarian) was 51.4 µM and the TGI (SK-OV-3 ovarian) was > 100 µM. The GI50 (SF-539 CNS) was 4.13 µM, the TGI (SF-539 CNS) was > 100 µM and the GI50 (RXF 393 renal) was 16.9 µM. It also gave a TGI (RXF 393 renal) of 45.4 µM, a GI50 (KM12 colon) of 26 µM and a TGI (KM12 colon) of 92.6 µM. For the same molecule, the GI50 (CCRF-CEM leukemia) was 11.4 µM, the TGI (CCRF-CEM leukemia) was > 100 µM and the GI50 (UACC-257 melanoma) was 27.3 µM. The TGI (UACC-257 melanoma) was > 100 µM, the GI50 (OVCAR-3 ovarian) was 18 µM and the TGI (OVCAR-3 ovarian) was 56.7 µM. The GI50 (HOP-62 NSCLC) was 15.1 µM, the TGI (HOP-62 NSCLC) was 53.9 µM and the GI50 (OVCAR-5 ovarian) was 64.1 µM. For the same molecule, the TGI (OVCAR-5 ovarian) was > 100 µM, the GI50 (M19-MEL melanoma) was 16.6 µM and the TGI (M19-MEL melanoma) was > 100 µM. For the same molecule, the GI50 (DMS 273 small cell lung) was 7.38 µM, the TGI (DMS 273 small cell lung) was > 100 µM and the GI50 (SF-268 CNS) was 4.53 µM. For the same molecule, the TGI (SF-268 CNS) was > 100 µM, the GI50 (HT29 colon) was 28.3 µM and the TGI (HT29 colon) was 68.2 µM. For the same molecule, the GI50 (HCT-15 colon) was 7.27 µM, the TGI (HCT-15 colon) was > 100 µM and the GI50 (SNB-19 CNS) was 4.62 µM. The TGI (SNB-19 CNS) was > 100 µM, the GI50 (CAKI-1 renal) was 39 µM and the TGI (CAKI-1 renal) was > 100 µM. It also gave a GI50 (ACHN renal) of 13.6 µM and a TGI (ACHN renal) of 80.9 µM.
